Structures are written as SMILES. The source made the active and inactive calls. The calls are words filed in the database; no cut-off is given here.

The text below walks through data of ChEMBL document CHEMBL3870312, “Rational modification of donepezil as multifunctional acetylcholinesterase inhibitors for the treatment of Alzheimer's disease” (Eur J Med Chem, 2016).

A short description of data set [1]: Metal chelating activity of the compound assessed as formation of copper complex at 50 uM by fluorescence spectrophotometry. It is filed as physicochemical.
Data set [2] deals with Amyloid-beta precursor protein (Homo sapiens) (UniProt P05067). The settings on record: at 20 µM.
Description: Inhibition of self-mediated aggregation of amyloid beta (1 to 42 residues) (unknown origin) at 20 uM incubated for 46 to 48 hrs by Thioflavin T binding assay relative to control
Data set [3] addresses Cholinesterase (Equus caballus, UniProt P81908).
Description: Inhibition of equine serum BuChE using s-butyrylthiocholine iodide as substrate preincubated for 5 mins followed by substrate addition measured up to 3 mins by Ellman's method
Data set [4] has as its system PC-12. In words: Neuroprotective activity against Cu2+-amyloid beta (1 to 42 residues) induced cell death in rat PC12 cells by phase-contrast microscopy analysis. It counts as functional, cell-based.
Data set [5] has as its target T1, Acetylcholinesterase (Homo sapiens, UniProt P22303). In words: Mixed-type inhibition of human erythrocyte AChE preincubated for 15 mins followed by addition of acetylthiocholine iodide as substrate in varying concentrations by Lineweaver-Burk reciprocal plot analysis.
Data set [6] has as its system PC-12. The data set can be described thus: Neuroprotective activity against amyloid beta (1 to 42 residues) induced cell death in rat PC12 cells assessed as increase in cell viability at 10 to 20 uM preincubated for 24 hrs followed by amyloid beta (1 to 42 residues) addition measured after 24 hrs by MTT assay. It is filed as functional, cell-based. For orientation: Tetrazolium dyes change colour on reduction, which living cells bring about.

The test system of data set [7] is Mus musculus. The data set can be described thus: Hepatotoxicity in scopolamine-induced memory deficit Kunming mouse model assessed as distinct fatty degeneration in hepatocytes at 10 mg/Kg, po for 6 days by hematoxylin and eosin-staining based microscopic analysis. It counts as toxicity, organism-based. The settings on record: in vivo, 144 h.
Data set [8] relates to Mus musculus. The data set can be described thus: Hepatotoxicity in scopolamine-induced memory deficit Kunming mouse model assessed as area of necrosis in hepatocytes at 10 mg/Kg, po for 6 days by hematoxylin and eosin-staining based microscopic analysis. It counts as toxicity, organism-based, Hepatocyte. Conditions: 144 h.
Data set [9] addresses Cholinesterase (Homo sapiens, UniProt P06276).
Description: Inhibition of human serum BuChE using s-butyrylthiocholine iodide as substrate preincubated for 5 mins followed by substrate addition measured up to 3 mins by Ellman's method
The subject of data set [10] is PC-12. The data set can be described thus: Neuroprotective activity against amyloid beta (1 to 42 residues) induced cell death in rat PC12 cells by phase-contrast microscopy analysis. It counts as functional, cell-based.
Data set [11] is described as follows: Metal chelating activity of the compound assessed as formation of copper complex at 10 uM by UV-vis spectrometry. It counts as physicochemical.
Data set [12] is described as follows: Metal chelating activity assessed as Zn2+-compound complex formation at 50 uM by fluorescence spectrophotometry. It counts as physicochemical.
In data set [13] the test system is PC-12. The data set can be described thus: Neuroprotective activity against Cu2+-amyloid beta (1 to 42 residues) induced cell death in rat PC12 cells assessed as increase in cell viability at 2.5 to 20 uM preincubated for 24 hrs followed by Cu2+-amyloid beta (1 to 42 residues) addition measured after 24 hrs by MTT assay. It counts as functional, cell-based.
Data set [14] deals with Acetylcholinesterase (Electrophorus electricus, UniProt O42275).
Description: Inhibition of electric eel AChE using acetylthiocholine iodide as substrate preincubated for 5 mins followed by substrate addition measured up to 3 mins by Ellman's method
Data set [15] in a line: Metal chelating activity assessed as mole fraction of compound required to show 1:1 stoichiometry for Cu2+-compound complex at 10 uM by UV-vis spectrometry. It counts as physicochemical.
A short description of data set [16]: Metal chelating activity of the compound assessed as formation of ferric complex at 50 uM by fluorescence spectrophotometry. It is filed as physicochemical.
In data set [17] the test system is Mus musculus. In words: Toxicity in scopolamine-induced memory deficit Kunming mouse model assessed as effect on survival at 2.5 to 10 mg/Kg, po for 7 days. It counts as organism-based. Conditions: in vivo, 168 h.
The test system of data set [18] is Mus musculus. The data set can be described thus: Cognitive enhancement activity in po dosed scopolamine-induced memory deficit Kunming mouse model assessed as increase in step-through latency time treated for 1 hr before training followed by scopolamine challenge 30 mins before training measured 24 hrs after training trial by passive avoidance test. It counts as functional, organism-based.

The nature of a further data set: in vitro. Conditions: PAMPA.
Data set [19] has as its system Mus musculus. The data set can be described thus: Toxicity in scopolamine-induced memory deficit Kunming mouse model assessed as change in body weight at 2.5 to 10 mg/Kg, po for 7 days. Conditions: in vivo, 168 h. It counts as organism-based.
Data set [20] concerns Mus musculus. In words: Hepatotoxicity in scopolamine-induced memory deficit Kunming mouse model assessed as increase in number of inflammatory cells in portal fields of liver at 10 mg/Kg, po for 6 days by hematoxylin and eosin-staining based microscopic analysis. It is filed as toxicity, organism-based. Conditions: in vivo, 144 h.
Data set [21] relates to Mus musculus. In words: Hepatotoxicity in scopolamine-induced memory deficit Kunming mouse model assessed as increase in alanine aminotransferase levels at 10 mg/kg, po for 6 days. It is filed as toxicity, organism-based. Conditions: in vivo, 144 h.
The next data set is filed under the species Rattus norvegicus. The data set can be described thus: Cytotoxicity against rat PC12 cells assessed as reduction in cell viability at 3.125 to 50 uM after 24 hrs by MTT assay. It is filed as toxicity. The settings on record: pc-12, 24 h.
Data set [22] concerns Mus musculus. The data set can be described thus: Hepatotoxicity in scopolamine-induced memory deficit Kunming mouse model assessed as increased aspartate aminotransferase at 10 mg/Kg, po for 6 days. Conditions: in vivo, 144 h. It counts as toxicity, organism-based.
The target of data set [23] is T1, Acetylcholinesterase.
Description: Inhibition of human erythrocytes AChE using acetylthiocholine iodide as substrate preincubated for 5 mins followed by substrate addition measured up to 3 mins by Ellman's method
The nature of data set [24]: Inhibition of copper-mediated aggregation of amyloid beta (1 to 42 residues) (unknown origin) incubated for 46 to 48 hrs by thioflavin-T binding assay. It is filed as physicochemical.
Data set [25] relates to Mus musculus. The data set can be described thus: Hepatotoxicity in Kunming mouse assessed as area of necrosis in hepatocytes at 3 mg/kg, po for 6 days by hematoxylin and eosin-staining based microscopic analysis. The settings on record: 144 h. It is filed as toxicity, organism-based, Hepatocyte.
In data set [26] the test system is Mus musculus. The data set can be described thus: Hepatotoxicity in Kunming mouse assessed as distinct fatty degeneration in hepatocytes at 3 mg/kg, po for 6 days by hematoxylin and eosin-staining based microscopic analysis. The settings on record: in vivo, 144 h. It counts as toxicity, organism-based.
In data set [27] the test system is Mus musculus. The data set can be described thus: Hepatotoxicity in Kunming mouse assessed as increase in number of inflammatory cells in portal fields of liver at 3 mg/kg, po for 6 days by hematoxylin and eosin-staining based microscopic analysis. It counts as toxicity, organism-based. Conditions: in vivo, 144 h.

T1 sequence (P22303 whole entry, the tested form may be a part): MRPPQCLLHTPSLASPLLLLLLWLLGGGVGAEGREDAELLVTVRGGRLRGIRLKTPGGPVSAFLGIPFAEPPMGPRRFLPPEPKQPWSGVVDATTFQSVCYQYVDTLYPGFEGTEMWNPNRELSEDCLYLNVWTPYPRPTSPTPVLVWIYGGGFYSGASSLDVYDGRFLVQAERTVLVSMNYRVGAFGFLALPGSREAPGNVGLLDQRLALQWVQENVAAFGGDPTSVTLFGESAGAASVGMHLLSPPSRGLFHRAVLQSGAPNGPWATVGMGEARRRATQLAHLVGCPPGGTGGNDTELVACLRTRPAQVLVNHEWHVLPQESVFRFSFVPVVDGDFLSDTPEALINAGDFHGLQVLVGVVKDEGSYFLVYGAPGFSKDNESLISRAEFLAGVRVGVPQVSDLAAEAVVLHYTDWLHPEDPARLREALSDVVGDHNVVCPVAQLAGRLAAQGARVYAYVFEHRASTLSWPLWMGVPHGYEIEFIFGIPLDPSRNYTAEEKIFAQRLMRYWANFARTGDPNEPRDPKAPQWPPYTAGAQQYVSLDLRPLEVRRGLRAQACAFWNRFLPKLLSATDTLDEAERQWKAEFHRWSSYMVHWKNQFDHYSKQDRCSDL
Chain of Cholinesterase (Homo sapiens, UniProt P06276) (P06276 whole entry, the tested form may be a part): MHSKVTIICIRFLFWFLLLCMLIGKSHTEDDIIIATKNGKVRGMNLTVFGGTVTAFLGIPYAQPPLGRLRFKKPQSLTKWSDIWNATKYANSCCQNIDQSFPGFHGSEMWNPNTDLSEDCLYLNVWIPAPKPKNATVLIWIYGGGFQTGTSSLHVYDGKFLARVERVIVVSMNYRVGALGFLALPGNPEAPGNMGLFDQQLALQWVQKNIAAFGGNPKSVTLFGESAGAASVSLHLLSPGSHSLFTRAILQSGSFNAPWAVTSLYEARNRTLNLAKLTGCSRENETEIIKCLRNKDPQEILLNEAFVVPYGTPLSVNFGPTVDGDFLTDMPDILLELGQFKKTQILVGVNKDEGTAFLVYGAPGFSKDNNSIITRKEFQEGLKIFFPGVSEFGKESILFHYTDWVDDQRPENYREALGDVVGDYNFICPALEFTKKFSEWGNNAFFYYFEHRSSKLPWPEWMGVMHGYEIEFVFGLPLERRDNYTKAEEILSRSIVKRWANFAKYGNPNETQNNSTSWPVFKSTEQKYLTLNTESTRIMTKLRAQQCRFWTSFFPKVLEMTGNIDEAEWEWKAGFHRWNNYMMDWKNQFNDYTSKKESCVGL
Chain of Cholinesterase (Equus caballus, UniProt P81908) (P81908 whole entry, the tested form may be a part): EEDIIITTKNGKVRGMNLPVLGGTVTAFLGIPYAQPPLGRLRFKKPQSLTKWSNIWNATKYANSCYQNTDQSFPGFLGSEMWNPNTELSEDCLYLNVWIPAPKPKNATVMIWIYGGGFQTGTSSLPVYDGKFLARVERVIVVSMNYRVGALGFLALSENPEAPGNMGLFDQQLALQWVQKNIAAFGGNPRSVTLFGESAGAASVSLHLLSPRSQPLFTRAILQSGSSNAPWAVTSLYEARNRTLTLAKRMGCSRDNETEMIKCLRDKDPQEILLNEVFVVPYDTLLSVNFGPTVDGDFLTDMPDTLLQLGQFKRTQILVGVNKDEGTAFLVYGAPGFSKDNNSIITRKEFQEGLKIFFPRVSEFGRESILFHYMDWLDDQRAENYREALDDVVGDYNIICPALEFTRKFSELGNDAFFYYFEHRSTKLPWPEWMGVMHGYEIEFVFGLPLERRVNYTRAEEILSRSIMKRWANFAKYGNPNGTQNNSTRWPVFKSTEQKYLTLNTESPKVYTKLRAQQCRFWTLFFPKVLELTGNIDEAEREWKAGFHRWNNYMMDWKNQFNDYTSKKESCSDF
Chain of Amyloid-beta precursor protein (Homo sapiens) (P05067 whole entry): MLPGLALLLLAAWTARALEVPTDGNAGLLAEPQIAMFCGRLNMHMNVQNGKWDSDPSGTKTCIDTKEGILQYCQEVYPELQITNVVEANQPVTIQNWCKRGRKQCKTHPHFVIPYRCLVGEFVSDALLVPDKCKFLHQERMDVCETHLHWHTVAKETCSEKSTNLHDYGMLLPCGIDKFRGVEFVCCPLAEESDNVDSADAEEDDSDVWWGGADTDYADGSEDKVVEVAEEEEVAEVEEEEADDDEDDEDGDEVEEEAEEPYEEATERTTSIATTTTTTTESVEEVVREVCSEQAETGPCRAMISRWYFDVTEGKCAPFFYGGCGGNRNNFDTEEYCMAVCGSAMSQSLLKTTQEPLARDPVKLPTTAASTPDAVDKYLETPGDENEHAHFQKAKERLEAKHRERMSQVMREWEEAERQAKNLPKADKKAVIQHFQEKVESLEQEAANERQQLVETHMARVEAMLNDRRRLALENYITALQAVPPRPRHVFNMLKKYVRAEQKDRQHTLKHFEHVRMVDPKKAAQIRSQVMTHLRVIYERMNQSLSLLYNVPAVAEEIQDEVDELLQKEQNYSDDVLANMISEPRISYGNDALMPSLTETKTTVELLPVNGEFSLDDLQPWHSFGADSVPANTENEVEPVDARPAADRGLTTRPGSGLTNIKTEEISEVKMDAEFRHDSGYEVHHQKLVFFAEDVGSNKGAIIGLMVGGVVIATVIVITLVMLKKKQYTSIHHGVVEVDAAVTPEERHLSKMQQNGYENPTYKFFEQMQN
Chain of Acetylcholinesterase (Electrophorus electricus, UniProt O42275) (O42275 whole entry): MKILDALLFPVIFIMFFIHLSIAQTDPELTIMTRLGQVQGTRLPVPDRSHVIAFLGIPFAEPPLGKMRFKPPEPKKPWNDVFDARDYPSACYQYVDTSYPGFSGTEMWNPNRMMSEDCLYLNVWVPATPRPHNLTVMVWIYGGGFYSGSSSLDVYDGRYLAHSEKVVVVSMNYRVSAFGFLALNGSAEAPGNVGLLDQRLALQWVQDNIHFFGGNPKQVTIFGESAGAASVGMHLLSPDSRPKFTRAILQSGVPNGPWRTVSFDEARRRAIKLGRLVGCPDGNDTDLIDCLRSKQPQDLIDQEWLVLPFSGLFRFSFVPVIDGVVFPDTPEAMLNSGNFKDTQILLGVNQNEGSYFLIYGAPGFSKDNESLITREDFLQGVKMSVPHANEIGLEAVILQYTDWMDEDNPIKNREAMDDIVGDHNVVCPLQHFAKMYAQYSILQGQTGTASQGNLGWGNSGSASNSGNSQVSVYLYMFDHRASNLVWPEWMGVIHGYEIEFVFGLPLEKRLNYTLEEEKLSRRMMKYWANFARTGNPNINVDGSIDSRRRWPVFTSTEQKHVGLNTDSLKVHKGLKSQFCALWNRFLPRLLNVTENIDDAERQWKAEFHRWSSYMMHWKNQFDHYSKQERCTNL
Description for in vitro: Effective permeability of the compound after 18 hrs by PAMPA

On to `COc1cc2c(cc1OC)C(=O)C(CC1CCN(Cc3cccc(C)n3)CC1)C2` (centres undefined), for which the Activity result in data set [1] is “Active”; in the data set with Mus musculus [7], “Non-Toxic”; in the data set on Mus musculus [8], “Non-Toxic”; in data set [11] it was “Active”; in data set [12], “Active”; in data set [15], 0.9 molar ratio. The Activity result in data set [16] was “Active”; in the data set on Mus musculus [17], “Non-Toxic”; with Mus musculus [18] it was “Dose-dependent effect”; in the data set on Mus musculus [19], “Non-Toxic”; in the data set with Mus musculus [20], “Non-Toxic”; with Mus musculus [21], “Non-Toxic”. The Activity result in the data set filed under Rattus norvegicus and in the data set with Mus musculus [22] was “Non-Toxic” in each case. This molecule registered an inhibition in [2] of 18.5%. Besides, the half-maximal inhibitory concentration (IC50) was found to be 20.5 µM at Cholinesterase [3], 65.7 µM against Cholinesterase [9], 0.085 µM against Acetylcholinesterase [14] and 0.073 µM at Acetylcholinesterase [23]. Moreover, the result in the data set on PC-12 [4], in the data set on PC-12 [6], in the data set on PC-12 [10] and in the data set on PC-12 [13] was Active. Further, on Acetylcholinesterase [5], the inhibition result was “Active”. This molecule also registered a Papp at 18 h in “in vitro” of 9.7 ×10⁻⁶ cm/s. Also, the “inhibition (INH)” value in [24] is “Dose-dependent effect”.

Turning to `CN1[C@@H]2C[C@@H](OC(=O)[C@H](CO)c3ccccc3)C[C@H]1[C@@H]1O[C@H]12`, the Activity result in the data set on Mus musculus [25], in the data set with Mus musculus [26] and in the data set on Mus musculus [27] was “Non-Toxic” throughout.

As usually defined, the inhibition is the change of the read-out against control, counted positive when it falls. As a reminder, the IC50 is the concentration needed to halve the response being measured. The term Papp denotes the rate of passage across a membrane or cell layer, normalised by area and donor concentration. Low readings indicate slow passage, high ones fast passage.
